According to US9840498B2, “Substituted quinazolin-4-one derivatives” (NOVARTIS AG, priority 2013, dated 2017):
pIC50: −log10 of the molar value.

Experiments:
[1] = target: human phosphoinositide-3 kinase (PI3K) alpha (Homo sapiens (Human), UniProt P42336); assay: PI3K-mediated Akt 1/2 (S473) phosphorylation in Rat-1 cells overexpressing PI3K alpha; type: cell-based, rat cells expressing human PI3K alpha; settings: cellular assay, p-AKT(Ser473), read-out: Cell PI3K alpha IC50
Procedure: 2.1 Phosphoinositide-3 kinase (PI3K)-Mediated Akt 1/2 (S473) Phosphorylation in Rat-1 Cells
Rat-1 cells stably overexpressing a myristoylated form of the catalytic subunit of human phosphoinositide-3 kinase (PI3K) alpha, beta or delta were plated in 384-well plates at a density of 7500 (PI3K alpha), 6200 (PI3K beta), or 4000 (PI3K delta) cells in 30 ul complete growth medium (Dulbecco's modified Eagle's medium (DMEM high glucose) supplemented with 10% (v/v) fetal bovine serum, 1% (v/v) MEM non essential amino acids, 10 mM HEPES, 2 mM L-glutamine, 10 μg/mL puromycin and 1% (v/v) Penicillin/Streptomycin) and were incubated at […]/5% CO2/95% humidity for 24 h. Compounds were diluted in 384-well compound plates (compound master plates), to obtain 8-point serial dilutions for 40 test compounds in 90% DMSO, as well as 4 reference compounds plus 16 high controls and 16 low (inhibited) controls. Predilution plates were prepared by dispensing pipetting 250 nl of compound solutions into 384-well polypropylen plates (daugther plates), using a Hummingwell nanoliter dispenser. Compounds were prediluted by the addition of 49.75 ul complete growth medium. 10 ul of prediluted compound solution were transferred to the cell plate using a 384-well pipettor, resulting in a final DMSO concentration of 0.11%. Cells were incubated for 1 h at […]/5% CO2/95% humidity. The supernatant was removed, the cells were lysed in 20 ul of lysis buffer for AlphaScreen® SureFire® detection.
For detection of p-AKT(Ser473), the SureFire® p-Akt 1/2 (Ser473) Assay Kit (PerkinElmer, U.S.A.) was used. 5 ul of cell lysate was transferred to 384-well low volume Proxiplates for detection using a 384-well pipettor. Addition of AlphaScreen® SureFire® reagents was done according to the manufacturer's protocol. First, 5 ul of reaction buffer plus activation buffer mix containing AlphaScreen® acceptor beads was added, the plate was sealed, and incubated on a plate shaker for 2 hours at room temperature. Second, 2 ul of dilution buffer containing AlphaScreen® donor beads was added, and the plate was incubated on plate shaker as above for a further 2 hours. The plate was read on an AlphaScreen® compatible plate reader, using standard AlphaScreen® settings. Alternatively, p-AKT(Ser473) was detected with the CisBio HTRF Assay Kit: As positive control, 0.9 mM of 1-(3-(trifluoromethyl)-4-(piperazin-1-yl)phenyl)-8-(6-methoxypyridin-3-yl)-3-methyl-1H-imidazo[4,5-c]quinolin-2(3H)-one maleic acid salt in 90% (v/v) DMSO was added to the compound master plate. For compound testing, the cells were seeded at a density of 4000 (Rat-1_PI3Kdelta), 8000 (Rat-1_PI3Kalpha), or 6500 (Rat-1_PI3Kbeta) cells in 30 ul complete growth medium into 384-well plates, with a plastic surface promoting the adhesion of cells and their growth (assay plates) and were grown at 37° C./5% CO2/90% humidity for 24 h. Some 10 ul of the compound predilutions from the daughter plate were then transferred to the cells. After treatment with compound for 1 h, medium was removed and cells were lysed by the addition of 20 ul lysis buffer supplemented with blocking buffer. Detection of p-AKT(Ser473) was performed with the HTRF pAKT (Ser473) assay kit according to the manufacturer's instructions using 16 ul of cell lysate in a total detection volume of 20 ul.

PI3K alpha = PI3K alpha (Homo sapiens (Human), UniProt P42336); assay: Biochemical assay for PI3Kalpha (Kinase-Glo format); settings: enzymatic assay
Procedure: 1.1 Generation of Gene Constructs, Protein Expression and Purification
For the enzymatic assays, the preparation of PI3K gene constructs, protein expression and purification for HTS are described in WO2012/004299.
1.2 Biochemical Assays for PI3Kalpha, PI3Kbeta (Kinase-Glo Format)
The kinase reaction is performed in a final volume of 50 μl per well of a half area COSTAR, 96 well plate. The final concentrations of ATP and phosphatidyl inositol in the assay are 5 μM and 6 μg/mL, respectively. The reaction is started by the addition of PI3 kinase, e.g. PI3 kinase α.
The components of the assay are added per well as follows: • 10 μl test compound in 5% DMSO per well in […]. • Total activity is determined by addition 10 μl of 5% vol/vol DMSO in the first 4 wells of column 1 and the last 4 wells of column 12. • The background is determined by addition of 10 μM control compound to the last 4 wells of column 1 and the first 4 wells of column 12. • 2 mL ‘Assay mix’ are prepared per plate: • 1.912 mL of HEPES assay buffer • 8.33 μl of 3 mM stock of ATP giving a final concentration of 5 μM per well • 1 μl of [^33P]ATP on the activity date giving 0.05 μCi per well • 30 μl of 1 mg/mL PI stock giving a final concentration of 6 μg/mL per well • 5 μl of 1 M stock MgCl2 giving a final concentration of 1 mM per well • 20 μl of the assay mix are added per well. • 2 mL ‘Enzyme mix’ are prepared per plate (x* μl PI3 kinase p110α in 2 mL of kinase buffer). The ‘Enzyme mix’ is kept on ice during addition to the assay plates. * The volume of enzyme is dependent on the enzymatic activity of the batch in use. • 20 μl ‘Enzyme mix’ are added/well to start the reaction. • The plate is then incubated at room temperature for 90 minutes. • The reaction is terminated by the addition of 50 μl WGA-SPA bead (wheat germ agglutinin-coated Scintillation Proximity Assay beads) suspension per well. • The assay plate is sealed using TopSeal-S (heat seal for polystyrene microplates, PerkinElmer LAS [Deutschland] GmbH, Rodgau, Germany) and incubated at room temperature for at least 60 minutes. • The assay plate is then centrifuged at 1500 rpm for 2 minutes using the Jouan bench top centrifuge (Jouan Inc., Nantes, France). • The assay plate is counted using a Packard TopCount, each well being counted for 20 seconds.
In a more preferred assay, the kinase reaction is performed in a final volume of 10 μl per well of a low volume non-binding CORNING, 384 well black plate (Cat. No. #3676). The final concentrations of ATP and phosphatidyl inositol (PI) in the assay are 1 μM and 10 μg/mL, respectively. The reaction is started by the addition of ATP.
The components of the assay are added per well as follows: […]

Chain of PI3K alpha (P42336 21-1068): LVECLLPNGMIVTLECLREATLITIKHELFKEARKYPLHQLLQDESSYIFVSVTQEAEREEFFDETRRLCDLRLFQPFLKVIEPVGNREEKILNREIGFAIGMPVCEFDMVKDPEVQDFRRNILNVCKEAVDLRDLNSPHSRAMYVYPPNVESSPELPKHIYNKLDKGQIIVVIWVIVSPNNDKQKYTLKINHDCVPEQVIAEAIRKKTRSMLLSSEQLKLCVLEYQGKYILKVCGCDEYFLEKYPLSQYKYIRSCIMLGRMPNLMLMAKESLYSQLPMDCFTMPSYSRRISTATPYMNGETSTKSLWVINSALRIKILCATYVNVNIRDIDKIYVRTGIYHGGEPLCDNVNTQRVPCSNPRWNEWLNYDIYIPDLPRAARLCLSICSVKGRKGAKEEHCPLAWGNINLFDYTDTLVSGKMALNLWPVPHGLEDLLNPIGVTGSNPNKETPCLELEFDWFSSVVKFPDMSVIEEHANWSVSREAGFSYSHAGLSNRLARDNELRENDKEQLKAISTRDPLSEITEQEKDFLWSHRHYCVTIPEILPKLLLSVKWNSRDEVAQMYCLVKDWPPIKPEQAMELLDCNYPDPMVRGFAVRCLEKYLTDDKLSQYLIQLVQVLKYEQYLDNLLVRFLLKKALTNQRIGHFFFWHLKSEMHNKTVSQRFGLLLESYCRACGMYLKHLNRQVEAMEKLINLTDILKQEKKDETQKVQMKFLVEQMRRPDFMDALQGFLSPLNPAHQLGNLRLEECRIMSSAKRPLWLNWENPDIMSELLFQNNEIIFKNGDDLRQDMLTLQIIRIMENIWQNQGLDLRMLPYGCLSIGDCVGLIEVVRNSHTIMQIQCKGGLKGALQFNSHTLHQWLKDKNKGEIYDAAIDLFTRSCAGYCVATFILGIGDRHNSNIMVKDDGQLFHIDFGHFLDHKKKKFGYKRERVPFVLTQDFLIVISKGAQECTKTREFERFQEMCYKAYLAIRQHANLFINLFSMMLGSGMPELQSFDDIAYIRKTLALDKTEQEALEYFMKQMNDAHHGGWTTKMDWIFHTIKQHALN
Chain of PI3K alpha (P27986 461-568 partner): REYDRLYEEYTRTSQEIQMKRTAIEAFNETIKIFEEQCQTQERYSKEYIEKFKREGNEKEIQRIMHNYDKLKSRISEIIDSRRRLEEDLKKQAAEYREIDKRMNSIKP
Chain of human phosphoinositide-3 kinase (PI3K) alpha (P42336 whole entry): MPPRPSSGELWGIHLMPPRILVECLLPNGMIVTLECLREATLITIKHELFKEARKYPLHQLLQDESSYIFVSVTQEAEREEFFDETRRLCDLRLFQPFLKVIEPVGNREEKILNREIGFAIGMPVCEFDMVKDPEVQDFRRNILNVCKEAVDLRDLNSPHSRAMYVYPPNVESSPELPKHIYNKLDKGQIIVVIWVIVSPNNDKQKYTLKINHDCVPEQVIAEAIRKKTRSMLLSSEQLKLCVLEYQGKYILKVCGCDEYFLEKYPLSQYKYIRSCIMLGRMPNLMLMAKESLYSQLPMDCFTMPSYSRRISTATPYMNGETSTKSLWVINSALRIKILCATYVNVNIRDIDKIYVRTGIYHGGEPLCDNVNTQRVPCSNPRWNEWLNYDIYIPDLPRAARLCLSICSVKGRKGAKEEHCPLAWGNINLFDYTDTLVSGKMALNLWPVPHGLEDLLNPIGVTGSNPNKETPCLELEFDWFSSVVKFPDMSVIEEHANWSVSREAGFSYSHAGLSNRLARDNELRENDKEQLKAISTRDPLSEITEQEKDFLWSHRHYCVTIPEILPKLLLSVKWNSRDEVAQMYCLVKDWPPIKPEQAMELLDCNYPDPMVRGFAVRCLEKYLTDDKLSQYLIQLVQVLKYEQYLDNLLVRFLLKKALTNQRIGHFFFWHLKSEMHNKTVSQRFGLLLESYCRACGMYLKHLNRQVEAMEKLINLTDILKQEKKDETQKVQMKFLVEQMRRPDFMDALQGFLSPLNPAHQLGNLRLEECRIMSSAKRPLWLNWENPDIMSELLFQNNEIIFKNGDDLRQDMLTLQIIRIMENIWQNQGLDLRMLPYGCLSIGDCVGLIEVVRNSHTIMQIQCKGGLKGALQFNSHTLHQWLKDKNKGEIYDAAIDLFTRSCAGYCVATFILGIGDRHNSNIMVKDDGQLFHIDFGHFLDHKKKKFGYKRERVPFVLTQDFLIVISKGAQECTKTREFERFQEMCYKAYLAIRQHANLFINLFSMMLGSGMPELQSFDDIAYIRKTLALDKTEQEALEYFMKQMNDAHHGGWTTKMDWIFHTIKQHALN
Chain of human phosphoinositide-3 kinase (PI3K) alpha (Q63787 whole entry partner): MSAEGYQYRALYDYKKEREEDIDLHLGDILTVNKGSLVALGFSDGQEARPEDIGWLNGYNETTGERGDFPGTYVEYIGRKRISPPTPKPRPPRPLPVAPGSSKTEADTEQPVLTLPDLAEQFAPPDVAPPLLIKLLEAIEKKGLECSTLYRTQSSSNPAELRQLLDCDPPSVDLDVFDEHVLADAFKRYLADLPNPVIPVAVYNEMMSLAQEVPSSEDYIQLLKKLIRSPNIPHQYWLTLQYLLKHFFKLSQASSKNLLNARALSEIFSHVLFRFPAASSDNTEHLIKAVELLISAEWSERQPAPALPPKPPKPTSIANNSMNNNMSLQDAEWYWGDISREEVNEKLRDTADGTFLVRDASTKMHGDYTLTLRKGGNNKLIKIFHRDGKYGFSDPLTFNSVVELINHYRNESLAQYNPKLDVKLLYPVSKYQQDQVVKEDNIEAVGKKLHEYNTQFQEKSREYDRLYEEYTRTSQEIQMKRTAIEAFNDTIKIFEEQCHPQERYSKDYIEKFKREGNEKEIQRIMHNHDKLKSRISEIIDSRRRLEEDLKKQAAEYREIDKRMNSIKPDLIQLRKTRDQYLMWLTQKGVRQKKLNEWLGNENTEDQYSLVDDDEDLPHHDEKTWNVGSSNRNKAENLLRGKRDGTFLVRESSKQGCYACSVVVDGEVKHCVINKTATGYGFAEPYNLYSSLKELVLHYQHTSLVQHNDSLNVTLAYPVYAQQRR

Row | Structure (SMILES) | pIC50 [1] | pIC50 (PI3K alpha)
1 | Cc1nc(N)nc(N2C[C@@H](O)C[C@H]2c2nc3ccc(F)c(-c4cnn(C)c4)c3c(=O)n2-c2ccccc2)c1C#N [Example 1, 2-Amino-4-((2S,4S)-2-(6-fluoro-5-(1-methyl-1H-pyrazol-4-yl)-4-oxo-3-phenyl-3,4-dihydroquinazolin-2-yl)-4-hydroxypyrrolidin-1-yl)-6-methylpyrimidine-5-carbonitrile] | 5.66 | 7.13
2 | Cn1cc(-c2cccc3nc([C@@H]4CCCN4c4ncnc(N)c4C#N)n(-c4ccccc4)c(=O)c23)cn1 [Example 2, (S)-4-Amino-6-(2-(5-(1-methyl-1H-pyrazol-4-yl)-4-oxo-3-phenyl-3,4-dihydroquinazolin-2-yl)pyrrolidin-1-yl)pyrimidine-5-carbonitrile] | 5.89 | 5.89
3 | COc1ncc(-c2cccc3nc([C@@H]4CCCN4c4ncnc(N)c4C#N)n(-c4ccccc4)c(=O)c23)cn1 [Example 3, (S)-4-Amino-6-(2-(5-(2-methoxypyrimidin-5-yl)-4-oxo-3-phenyl-3,4-dihydroquinazolin-2-yl)pyrrolidin-1-yl)pyrimidine-5-carbonitrile] | 5.17 | 5.85
4 | COc1ncc(-c2cccc3nc([C@@H]4CCCN4c4nc(N)nc(C)c4C#N)n(-c4ccccc4)c(=O)c23)cn1 [Example 4, (S)-2-Amino-4-(2-(5-(2-methoxypyrimidin-5-yl)-4-oxo-3-phenyl-3,4-dihydroquinazolin-2-yl)pyrrolidin-1-yl)-6-methylpyrimidine-5-carbonitrile] | 5.55 | 6.49
5 | Cn1cc(-c2c(F)ccc3nc([C@@H]4CCCN4c4ncnc(N)c4C#N)n(-c4ccccc4)c(=O)c23)cn1 [Example 5, (S)-4-Amino-6-(2-(6-fluoro-5-(1-methyl-1H-pyrazol-4-yl)-4-oxo-3-phenyl-3,4-dihydroquinazolin-2-yl)pyrrolidin-1-yl)pyrimidine-5-carbonitrile] | 5.52 | 6.64
6 | Cc1nc(N)nc(N2CCC[C@H]2c2nc3ccc(F)c(-c4cnn(C)c4)c3c(=O)n2-c2ccccc2)c1C#N [Example 6, (S)-2-Amino-4-(2-(6-fluoro-5-(1-methyl-1H-pyrazol-4-yl)-4-oxo-3-phenyl-3,4-dihydroquinazolin-2-yl)pyrrolidin-1-yl)-6-methylpyrimidine-5-carbonitrile] | 5.85 | 6.89
7 | COc1ncc(-c2c(F)ccc3nc([C@@H]4C[C@H](O)CN4c4nc(N)nc(C)c4C#N)n(-c4ccccc4)c(=O)c23)cn1 [Example 7, 2-Amino-4-((2S,4S)-2-(6-fluoro-5-(2-methoxypyrimidin-5-yl)-4-oxo-3-phenyl-3,4-dihydroquinazolin-2-yl)-4-hydroxypyrrolidin-1-yl)-6-methylpyrimidine-5-carbonitrile] | 5.33 | 6.68
8 | Cn1cc(-c2c(F)ccc3nc([C@@H]4C[C@H](O)CN4c4ncnc(N)c4C#N)n(-c4ccccc4)c(=O)c23)cn1 [Example 8, 4-Amino-6-((2S,4S)-2-(6-fluoro-5-(1-methyl-1H-pyrazol-4-yl)-4-oxo-3-phenyl-3,4-dihydroquinazolin-2-yl)-4-hydroxypyrrolidin-1-yl) pyrimidine-5-carbonitrile] | 5.49 | 5.96
9 | COc1ncc(-c2c(F)ccc3nc([C@@H]4C[C@H](O)CN4c4nc(N)nc(C)c4C#N)n(-c4ccccc4)c(=O)c23)s1 [Example 9, 2-Amino-4-((2S,4S)-2-(6-fluoro-5-(2-methoxythiazol-5-yl)-4-oxo-3-phenyl-3,4-dihydroquinazolin-2-yl)-4-hydroxypyrrolidin-1-yl)-6-methylpyrimidine-5-carbonitrile] | 6.17 | 7.28
10 | CO[C@H]1C[C@@H](c2nc3cccc(-c4cnn(C)c4)c3c(=O)n2-c2ccccc2)N(c2nc(N)nc(C)c2C#N)C1 [Example 10, 2-Amino-4-((2S,4S)-4-methoxy-2-(5-(1-methyl-1H-pyrazol-4-yl)-4-oxo-3-phenyl-3,4-dihydroquinazolin-2-yl)pyrrolidin-1-yl)-6-methylpyrimidine-5-carbonitrile] | 5.41 | 5.89
11 | CO[C@H]1C[C@@H](c2nc3cccc(-c4cnn(C)c4)c3c(=O)n2-c2ccccc2)N(c2nc(N)nc3[nH]cnc23)C1 [Example 11, 2-((2S,4S)-1-(2-Amino-9H-purin-6-yl)-4-methoxypyrrolidin-2-yl)-5-(1-methyl-1H-pyrazol-4-yl)-3-phenylquinazolin-4(3H)-one] | < 5.00 | 5.64
12 | COc1ncc(-c2cccc3nc([C@@H]4C[C@H](OC)CN4c4nc(N)nc(C)c4C#N)n(-c4ccccc4)c(=O)c23)cn1 [Example 12, 2-Amino-4-((2S,4S)-4-methoxy-2-(5-(2-methoxypyrimidin-5-yl)-4-oxo-3-phenyl-3,4-dihydroquinazolin-2-yl)pyrrolidin-1-yl)-6-methylpyrimidine-5-carbonitrile] | 5.23 | 5.92
13 | Cc1nc(N)nc(N2CCC[C@H]2c2nc3cccc(-c4cnn(C)c4)c3c(=O)n2-c2ccccc2)c1C#N [Example 13, (S)-2-Amino-4-methyl-6-(2-(5-(1-methyl-1H-pyrazol-4-yl)-4-oxo-3-phenyl-3,4-dihydroquinazolin-2-yl)pyrrolidin-1-yl)pyrimidine-5-carbonitrile] | 5.96 | 6.59
14 | Cc1ccccc1-n1c([C@@H]2CCCN2c2ncnc(N)c2C#N)nc2cccc(-c3cnn(C)c3)c2c1=O [Example 14, (S)-4-Amino-6-(2-(5-(1-methyl-1H-pyrazol-4-yl)-4-oxo-3-(otolyl)-3,4-dihydroquinazolin-2-yl)pyrrolidin-1-yl)pyrimidine-5-carbonitrile] | 5.48 | 6.04
